“And” between values parts separate entries of the source, which are not always exact repeats. Equal entries are not always repeated.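 Assay format: 96-well plates, 48-hour exposure. GI50 = concentration required for 50% inhibition of growth. TGI denotes the concentration required for complete inhibition of growth.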
What was measured:
Assay in all cases: NCI tumour cell line growth inhibition, 48 h
[1] = test system: COLO 205 colon
[2] = test system: HCT-15 colon
[3] = test system: U251 CNS
[4] = test system: SNB-75 CNS
[5] = test system: SNB-19 CNS
[6] = test system: T-47D breast
[7] = test system: MDA-MB-231 breast
[8] = test system: HL-60(TB) leukemia
[9] = test system: M14 melanoma
[10] = test system: OVCAR-4 ovarian

Compound	GI50 [1]	TGI [1]	GI50 [2]	TGI [2]	GI50 [3]	TGI [3]	GI50 [4]	TGI [4]	GI50 [5]	TGI [5]	GI50 [6]	TGI [6]	GI50 [7]	TGI [7]	GI50 [8]	TGI [8]	GI50 [9]	TGI [9]	GI50 [10]	TGI [10]
Cn1c(C(=O)c2ccncc2)cc2ccccc21	> 100 µM	> 100 µM	90.9 µM	> 100 µM	> 100 µM	> 100 µM	85.6 µM	> 100 µM	> 100 µM	> 100 µM	41.6 µM	> 100 µM	66.5 µM	> 100 µM	76.5 µM	> 100 µM	> 100 µM	> 100 µM	> 100 µM	> 100 µM
C[C@@H]1C[C@H](C)CN(S(=O)(=O)c2ccc3c(NO)c4ccc(S(=O)(=O)N5C[C@H](C)C[C@H](C)C5)cc4c(N=O)c3c2)C1	0.172 µM	0.342 µM	0.0717 µM	0.211 µM	0.129 µM	0.266 µM	0.123 µM	0.255 µM	0.164 µM	0.353 µM	0.178 µM	0.362 µM	0.0738 µM	0.234 µM	0.185 µM	0.448 µM	0.103 µM	0.231 µM	0.17 µM	0.346 µM
O=S(=O)(NC1=NCCN1C(=S)SN1CCn2c1nsc2=S)c1cccc2ccccc12	26.8 µM	> 100 µM	26.3 µM	> 100 µM	20.6 µM	49.9 µM	24.3 µM	> 100 µM	62.3 µM	> 100 µM	20.2 µM	> 100 µM	14.7 µM	32.5 µM	30.9 µM	99.3 µM	24.6 µM	> 100 µM	29.2 µM	> 100 µM
Cc1nc(N)nc2c1CCC(O)S2 (stereo not drawn)	5.31 µM	16.7 µM	26.3 µM	> 100 µM	3.3 µM	11.5 µM	11.2 µM	39.8 µM	6.43 µM	41.1 µM	5.25 µM	30.2 µM	10.2 µM	32.8 µM	11.4 µM	33 µM	8.44 µM	31.6 µM	3.26 µM	14.2 µM
CC1CCC2(NC1)OC1CC3C4CC=C5CC(O)CCC5(C)C4CCC3(C)C1C2C (stereo not drawn)		> 100 µM		> 100 µM	23.7 µM and 4.92 µM	64.7 µM and 23.5 µM		15.3 µM	18.9 µM and 6.38 µM	99.5 µM and 62.1 µM		49 µM and 48.9 µM		51.7 µM and 37 µM		31.5 µM and 29.9 µM		> 100 µM	22.3 µM and 5.29 µM	58.8 µM and 53.7 µM
O=C1/C(=C/c2cccc(Br)c2)COc2ccc(O)cc21	3.33 µM	11.1 µM	1.95 µM	7.88 µM	1.49 µM	3 µM	1.79 µM	14.6 µM	2.43 µM	7.47 µM	2.18 µM	6.28 µM	2.88 µM	9.38 µM	1.88 µM	5.75 µM	3.42 µM	12.3 µM	3.55 µM	14.1 µM

From PubChem BioAssay (NCI)
